# Key:
# HIF-2α = biological target: T1, HIF-2α (Homo sapiens, UniProt Q99814); test: Luciferase reporter gene assay (HRE-driven luciferase in stably transfected 786-O cells); type: cell-based
# T1 construct: 786-O is a renal carcinoma cell line that predominantly expresses HIF-2α and lacks functional HIF-1α; endogenous in cells; host or cells: 786-O cells stably carrying an HRE-driven luciferase reporter
# Text: Experimental principles: 786-O is a renal carcinoma cell line that predominantly expresses HIF-2α and lacks functional HIF-1α. This characteristic makes 786-O cells an ideal model for studying HIF-2α transcriptional activity and related signaling pathways. In the luciferase reporter gene assay, a 786-O monoclonal cell line that stably expresses hypoxia response element (HRE)-driven luciferase (Luc) activity is obtained through puromycin selection. The HIF-2α agonist promotes dimerization of HIF-2α and HIF-β, and activates an HRE promoter. By measuring fluorescence intensity, luciferase activity can be determined, thereby assessing the ability of the HIF-2α agonist to promote transcription.
# Experimental method: A total of 6000 stably transfected 786-O cells stably containing HRE and Luc sequences are seeded in each well of a 96-well plate, and 100 µL of RPMI-1640 culture medium containing 10% fetal bovine serum is added to each well. After 24 hours, a compound at a corresponding concentration is added to each well. A blank group is set as a control. Only a DMSO solvent is added in the well of the blank group. For initial compound screening, both tafamidis and tafamidis meglumine are tested at two concentrations: 2 µM and 20 µM. For concentration-gradient determination, each concentration is tested in triplicate. After co-incubation for 24 hours, the culture medium is discarded, and 20 µL of firefly luciferase reporter gene cell lysis buffer (RG126M, Beyotime) is added to each well. The 96-well plate is shaken on a microplate shaker for 10 minutes. After shaking, 10 µL of lysate is transferred into a white opaque plate, and then 10 µL of Steady-Lumi™ firefly luciferase assay reagent (RG058S, Beyotime) is added to each well. Finally, luminescence is measured using a microplate reader (Agilent Synergy Neo2). E20 represents the effect of the compound at a 20 µM concentration, and is calculated as: E20 = fluorescence value of the 20 µM well ÷ fluorescence value of the blank control × 100%. E2 represents the effect of the compound at a 2 µM concentration, and is calculated as: E2 = fluorescence value of the 2 µM well ÷ fluorescence value of the blank control × 100%. EC50 is the compound concentration at which the agonistic efficacy is increased by 50% relative to the blank control. The agonistic efficacy of a compound is determined by calculating the concentration (EC50) required to achieve a 50% increase in the fluorescence activity relative to the blank control and a maximum activation percentage (Emax). The maximum activation percentage (Emax) of an agonist refers to a ratio, expressed as a percentage, of the fluorescence value corresponding to the maximal effect (observed maximal response) induced when the agonist concentration reaches receptor-binding saturation in a particular receptor system, to the fluorescence value of the receptor system in the absence of agonist. In this experiment, Vyndaqel is directly used in place of tafamidis meglumine.
# [1] = test system: erythropoietin (EPO) gene expression; test: qRT-PCR assay of EPO gene expression in 786-O renal carcinoma cells; type: cell-based; settings: 20 µM, 24 hours, relative to the vehicle, GAPDH internal control
# Description: Experimental method: 786-O renal carcinoma cells are seeded into a 12-well plate. After 24 hours, tafamidis is added at different concentrations (1 µM, 10 µM, and 20 µM, separately), and the cells are co-incubated with the compound for 24 hours. No treatment is applied to the vehicle group. RNA is extracted using a TRIZOL reagent. cDNA transcription is performed using an All-in-one™ First-Strand cDNA Synthesis Kit (for specific operating procedures, see the manufacturer's instructions). A SYBR reagent is used for fluorescence signal detection, and GAPDH is used as an internal control. The qRT-PCR primers are as follows: • GAPDH_fwd, […]; • GAPDH_rev, TGGTGAAGACGCCAGTGGA; • VEGF_fwd, […]; • VEGF_rev, […]; • EPO_fwd, […]; • EPO_rev, […].
# [2] = test system: aristolochic acid-induced zebrafish model; test: Aristolochic acid-induced zebrafish model: cardiac erythrocyte staining intensity (renal anemia); type: in vivo, Wild-type AB strain zebrafish; settings: 30 hours, normal group 100%, model group 46%
# Description: Wild-type AB strain zebrafish at 2 days post-fertilization are randomly selected and placed in a 6-well plate, with 30 zebrafish treated in each well (treatment group). Other than the normal control group, all treatment groups are exposed to aristolochic acid in aqueous solution to establish a zebrafish renal anemia model. After treatment at 28 °C for 18 hours, a normal control group and a model control group are set up simultaneously. Tafamidis samples are administered in aqueous solution to the treatment groups separately (at concentrations of 0.1 µM and 1 µM separately). Water is administered to the normal control group and the model control group correspondingly, with a volume of 3 mL per well. After continued treatment at 28 °C for 30 hours, staining is performed using o-dianisidine. After staining, 10 zebrafish are randomly selected from each treatment group and photographed under a dissecting microscope. Data is collected using NIS-Elements D 3.20 advanced image processing software, and the staining intensity of cardiac erythrocytes in the zebrafish is analyzed. The statistical significance of this indicator is used to evaluate the efficacy of the sample in alleviating renal anemia. Statistical analysis is performed using SPSS 26.0 software, and p < 0.05 indicates a statistically significant difference.
# [3] = test system: Cisplatin-induced renal injury and anemia rat model; test: Cisplatin-induced renal injury and anemia rat model; type: in vivo, Male Sprague-Dawley (SD) rats; settings: 10 mg/kg daily oral for four weeks, kidney sections
# T1 sequence (Q99814 whole entry): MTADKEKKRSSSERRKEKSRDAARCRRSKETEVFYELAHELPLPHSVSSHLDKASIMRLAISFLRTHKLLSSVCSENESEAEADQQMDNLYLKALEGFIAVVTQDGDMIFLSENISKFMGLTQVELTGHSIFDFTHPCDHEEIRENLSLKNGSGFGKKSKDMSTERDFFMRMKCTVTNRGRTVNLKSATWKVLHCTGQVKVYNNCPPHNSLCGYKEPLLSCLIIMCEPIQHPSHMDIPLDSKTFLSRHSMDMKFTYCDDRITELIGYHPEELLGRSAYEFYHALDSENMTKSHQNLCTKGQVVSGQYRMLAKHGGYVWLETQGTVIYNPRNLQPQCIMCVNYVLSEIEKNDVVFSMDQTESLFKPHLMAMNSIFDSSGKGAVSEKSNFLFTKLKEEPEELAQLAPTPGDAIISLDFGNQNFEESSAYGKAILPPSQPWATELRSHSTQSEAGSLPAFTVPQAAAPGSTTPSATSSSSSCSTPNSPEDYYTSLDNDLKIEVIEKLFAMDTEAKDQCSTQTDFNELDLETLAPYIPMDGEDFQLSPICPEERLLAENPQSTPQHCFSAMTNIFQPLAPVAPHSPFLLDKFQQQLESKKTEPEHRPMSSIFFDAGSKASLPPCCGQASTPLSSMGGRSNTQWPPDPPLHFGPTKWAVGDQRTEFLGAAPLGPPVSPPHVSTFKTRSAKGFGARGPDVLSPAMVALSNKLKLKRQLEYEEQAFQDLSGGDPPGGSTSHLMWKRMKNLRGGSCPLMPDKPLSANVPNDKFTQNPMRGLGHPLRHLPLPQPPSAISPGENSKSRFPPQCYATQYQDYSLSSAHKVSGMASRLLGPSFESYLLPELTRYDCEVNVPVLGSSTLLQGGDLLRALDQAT
# T1 sequence (P27540 whole entry partner): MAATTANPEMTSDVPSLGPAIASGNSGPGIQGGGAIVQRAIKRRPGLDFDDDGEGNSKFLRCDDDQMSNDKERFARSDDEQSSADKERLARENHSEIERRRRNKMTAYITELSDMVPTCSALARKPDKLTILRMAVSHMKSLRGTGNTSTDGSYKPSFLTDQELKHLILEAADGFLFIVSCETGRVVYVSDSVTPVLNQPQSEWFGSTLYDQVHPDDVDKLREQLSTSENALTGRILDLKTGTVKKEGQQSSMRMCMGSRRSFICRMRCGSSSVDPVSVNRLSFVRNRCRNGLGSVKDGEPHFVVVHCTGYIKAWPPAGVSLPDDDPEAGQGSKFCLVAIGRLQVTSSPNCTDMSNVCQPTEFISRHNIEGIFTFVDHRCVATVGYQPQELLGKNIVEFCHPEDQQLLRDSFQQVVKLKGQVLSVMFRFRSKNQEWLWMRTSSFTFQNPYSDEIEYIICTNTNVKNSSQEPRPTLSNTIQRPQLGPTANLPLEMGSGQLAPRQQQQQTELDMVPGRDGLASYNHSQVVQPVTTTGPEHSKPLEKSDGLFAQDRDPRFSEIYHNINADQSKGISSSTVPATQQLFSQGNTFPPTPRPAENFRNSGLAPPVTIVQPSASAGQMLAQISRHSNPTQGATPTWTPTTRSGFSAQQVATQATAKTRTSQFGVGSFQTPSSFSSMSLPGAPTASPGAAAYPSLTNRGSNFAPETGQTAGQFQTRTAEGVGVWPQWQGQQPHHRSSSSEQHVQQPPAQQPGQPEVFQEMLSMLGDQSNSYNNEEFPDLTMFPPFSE
compound,measurement,setting,value
"O=C(O)c1ccc2nc(-c3cc(Cl)cc(Cl)c3)oc2c1 [tafamidis, 2-(3,5-dichlorophenyl)-1,3-benzoxazole-6-carboxylic acid]",agonistic efficacy at a 2 µM concentration (E2),"HIF-2α; 2 µM, 24 hours co-incubation, fluorescence value as % of blank control (DMSO)",142%
same,agonistic efficacy at a 20 µM concentration (E20),"HIF-2α; 20 µM, 24 hours co-incubation, fluorescence value as % of blank control (DMSO)",207%
same,Emax,"HIF-2α; 786-0, read-out: Emax (maximum activation percentage), maximal response as % of fluorescence without agonist",225%
same,EC50,"HIF-2α; concentration required for a 50% increase in fluorescence activity relative to the blank control, 24 hours, read-out: EC50",1110 nM
same,upregulates erythropoietin (EPO) gene expression,[1],0.9 fold
same,cardiac red blood cell count,[2]; 0.1 µM in aqueous solution,60%
same,cardiac red blood cell count,[2]; 1 µM in aqueous solution,65%
same,"α-smooth muscle actin (α-SMA) protein levels, immunohistochemical",[3],significantly reduces
